Measured values taken from PMC5515969, “Effects of 31 FDA approved small-molecule kinase inhibitors on isolated rat liver mitochondria” (Archives of Toxicology, 2016).
Read-outs that look alike come from different tables or passages of the source. Marks after values point to notes of the source that are not given here.

Experiments:
[1] = test system: isolated rat liver mitochondria; assay: Mitochondrial oxygen consumption (glutamate/malate or succinate driven, state 4 and state 3); format: biochemical; conditions: for Glutamate/malate driven respiration State 3 / Glutamate/malate driven respiration State 4 / Succinate-driven respiration State 3 / Succinate-driven respiration State 4: oxygen consumption, DMSO-treated = 1; for State 3 respiration driven by succinate at 10XCmax: key: 0 indicates that the drug had no effects (negative); for State 3 respiration driven by succinate at 1XCmax: key: 0 indicates that the drug had no effects (negative)
Procedure, shortened: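 Oxygen uptake on glutamate/malate or on succinate defined state 4; ADP added 3 min later gave state 3. Mitochondria isolated from rat liver by differential centrifugation, adjusted to 1 mg/ml and pretreated 5 min with inhibitor (0.1% DMSO final). Values relative to DMSO control, set to 1.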

RCC I = RCC I activity in submitochondrial particles; format: biochemical, rat; set-up: key to RCC I at 10XCmax / RCC I at 100XCmax / RCC I at 50XCmax / RCC I at 30XCmax / RCC I at 20XCmax: activity relative to DMSO-treated controls (control set as 1 = 100%); conditions: for RCC activity I: 15 min
Procedure, shortened: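 Kinase inhibitors were preincubated 15 min with submitochondrial particles (1 mg/ml) before complex activities were measured. RCC I was the rotenone-sensitive portion (activity without minus with rotenone). RCC I/V was read at 340 nm and RCC II at 600 nm every 1 min for 6 min. RCC III and IV were read at 550 nm every 10 s for 2 min. Activities are normalized to DMSO controls set as 1.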

RCC II = target: T1, RCC II (Rattus norvegicus, UniProt P21913+Q641Z9+Q6PCT8+Q920L2); assay: RCC II activity in submitochondrial particles; format: biochemical; set-up: key: activity relative to DMSO-treated controls (control set as 1 = 100%); conditions: DMSO treated samples set as 1
T1 construct: Submitochondrial particles were prepared by subjecting the intact mitochondria to three successive freeze–thaw cycles; from tissue; host or cells: rat liver mitochondria, used as submitochondrial particles
T1 sequence (Q920L2 35-656): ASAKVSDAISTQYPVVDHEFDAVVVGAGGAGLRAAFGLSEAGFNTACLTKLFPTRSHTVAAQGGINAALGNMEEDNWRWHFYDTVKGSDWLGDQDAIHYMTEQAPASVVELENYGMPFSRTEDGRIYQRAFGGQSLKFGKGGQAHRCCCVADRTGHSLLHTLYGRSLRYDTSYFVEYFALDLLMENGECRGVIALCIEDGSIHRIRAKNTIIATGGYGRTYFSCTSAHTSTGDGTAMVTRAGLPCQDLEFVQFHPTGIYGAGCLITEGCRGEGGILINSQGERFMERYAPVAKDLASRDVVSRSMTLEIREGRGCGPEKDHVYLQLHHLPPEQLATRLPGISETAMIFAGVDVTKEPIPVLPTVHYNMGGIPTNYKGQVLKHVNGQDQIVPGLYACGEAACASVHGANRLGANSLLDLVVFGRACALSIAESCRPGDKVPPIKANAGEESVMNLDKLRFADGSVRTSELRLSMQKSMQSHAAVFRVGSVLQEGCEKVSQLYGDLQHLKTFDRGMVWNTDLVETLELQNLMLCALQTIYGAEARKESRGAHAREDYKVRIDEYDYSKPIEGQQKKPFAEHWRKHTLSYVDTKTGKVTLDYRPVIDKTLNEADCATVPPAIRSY
T1 sequence (P21913 31-282): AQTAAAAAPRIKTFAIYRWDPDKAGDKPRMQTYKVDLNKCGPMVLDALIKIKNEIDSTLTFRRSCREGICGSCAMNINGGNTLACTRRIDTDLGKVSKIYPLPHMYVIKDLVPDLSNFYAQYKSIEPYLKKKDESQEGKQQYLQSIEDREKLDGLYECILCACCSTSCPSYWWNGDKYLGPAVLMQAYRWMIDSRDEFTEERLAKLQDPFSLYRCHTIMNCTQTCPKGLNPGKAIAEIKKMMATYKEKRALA
T1 sequence (Q641Z9 1-169): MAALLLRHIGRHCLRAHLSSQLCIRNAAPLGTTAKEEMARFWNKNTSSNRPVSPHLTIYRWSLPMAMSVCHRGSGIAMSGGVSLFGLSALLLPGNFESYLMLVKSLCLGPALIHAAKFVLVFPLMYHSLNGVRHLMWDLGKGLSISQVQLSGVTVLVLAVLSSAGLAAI
T1 sequence (Q6PCT8 57-159): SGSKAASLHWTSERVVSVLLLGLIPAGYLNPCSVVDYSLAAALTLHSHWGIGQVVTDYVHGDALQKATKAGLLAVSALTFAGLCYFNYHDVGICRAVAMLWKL
Procedure, shortened: (§1)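 Absorbance kinetics: A340 (RCC I, V) and A600 (RCC II) read each minute over 6 min, A550 (RCC III, IV) every 10 s over 2 min; RCC I taken as […]. Particles (1 mg/ml) pretreated 15 min with compound; DMSO-treated activity = 1.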

RCC IV = RCC IV activity in submitochondrial particles; format: biochemical, rat; set-up: key to RCC IV at 50XCmax / RCC IV at 100XCmax: activity relative to DMSO-treated controls (control set as 1 = 100%); conditions: for RCC activity IV: 15 min, DMSO-treated = 100
Procedure, shortened: as §1

RCC V = RCC V activity in submitochondrial particles; format: biochemical, rat; conditions: for RCC activity V: 15 min, DMSO-treated = 100; for RCC V at 5XCmax: key: 0 indicates that the drug had no effects (negative)
Procedure, shortened: as §1

[2] = test system: isolated rat liver mitochondria; assay: Mitochondrial inner membrane potential (MMP), Rhodamine 123; format: biochemical
Source text: Fig. 3 KI effects on mitochondrial inner membrane potential (MMP). […] In a, c, data are means and standard derivations from three separate experiments. *p < 0.05 as compared to DMSO-treated samples at the end of experiments. In b, data are means of two independent experiments

[3] = test system: isolated rat liver mitochondria; assay: Mitochondrial swelling (absorbance at 535 nm); format: biochemical; for Swelling 5XCmax: key: 0 indicates that the drug had no effects (negative)
[4] = test system: isolated rat liver mitochondria
[5] = cited from earlier work
[6] = cited from earlier work; remark: listed apart in the source
[7] = 1XCmax, DMSO treated samples set as 1
[8] = 2.5XCmax, DMSO treated samples set as 1
[9] = 5XCmax, DMSO treated samples set as 1
[10] = 10XCmax, DMSO treated samples set as 1
[11] = 20XCmax, DMSO treated samples set as 1
[12] = 30XCmax, DMSO treated samples set as 1
[13] = 50XCmax, DMSO treated samples set as 1
[14] = 100XCmax, DMSO treated samples set as 1
[15] = 1XCmax, difference in signal between KI and DMSO treated samples at the end of experiments
[16] = 2.5XCmax, difference in signal between KI and DMSO treated samples at the end of experiments
[17] = 5XCmax, difference in signal between KI and DMSO treated samples at the end of experiments
[18] = 10XCmax, difference in signal between KI and DMSO treated samples at the end of experiments
[19] = 20XCmax, difference in signal between KI and DMSO treated samples at the end of experiments
[20] = 30XCmax, difference in signal between KI and DMSO treated samples at the end of experiments
[21] = 50XCmax, difference in signal between KI and DMSO treated samples at the end of experiments
[22] = 100XCmax, difference in signal between KI and DMSO treated samples at the end of experiments

Cc1cc(Nc2ncc(Cl)c(Nc3ccccc3S(=O)(=O)C(C)C)n2)c(OC(C)C)cc1C1CCNCC1 [Ceritinib]
State 3 respiration driven by glutamate/malate at 1XCmax [1, 7]: 0
State 3 respiration driven by succinate at 1XCmax [1, 7]: 0
State 4 respiration driven by glutamate/malate at 1XCmax [1, 7]: 0
State 4 respiration driven by succinate at 1XCmax [1, 7]: 0
State 3 respiration driven by glutamate/malate at 2.5XCmax [1, 8]: 0
State 3 respiration driven by succinate at 2.5XCmax [1, 8]: 0
State 4 respiration driven by glutamate/malate at 2.5XCmax [1, 8]: 0
State 4 respiration driven by succinate at 2.5XCmax [1, 8]: 0
State 3 respiration driven by glutamate/malate at 5XCmax [1, 9]: 0
State 3 respiration driven by succinate at 5XCmax [1, 9]: 0
State 4 respiration driven by glutamate/malate at 5XCmax [1, 9]: 0
State 4 respiration driven by succinate at 5XCmax [1, 9]: 0
State 3 respiration driven by glutamate/malate at 10XCmax [1, 10]: 0
State 3 respiration driven by succinate at 10XCmax [1, 10]: 0
State 4 respiration driven by glutamate/malate at 10XCmax [1, 10]: 0
State 4 respiration driven by succinate at 10XCmax [1, 10]: 0
State 3 respiration driven by glutamate/malate at 20XCmax [1, 11]: 0
State 3 respiration driven by succinate at 20XCmax [1, 11]: 0
State 4 respiration driven by glutamate/malate at 20XCmax [1, 11]: 0
State 4 respiration driven by succinate at 20XCmax [1, 11]: 0
Glutamate/malate driven respiration State 3 ([1]; 30-fold Cmax): 0.88 ± 0.05
Glutamate/malate driven respiration State 4 ([1]; 30-fold Cmax): 1.12 ± 0.13
Succinate-driven respiration State 3 ([1]; 30-fold Cmax): 0.41 ± 0.18
Succinate-driven respiration State 4 ([1]; 30-fold Cmax): 0.70 ± 0.12
State 3 respiration driven by glutamate/malate at 30XCmax [1, 12]: 0
State 3 respiration driven by succinate at 30XCmax [1, 12]: 0.41±0.18
State 4 respiration driven by glutamate/malate at 30XCmax [1, 12]: 0
State 4 respiration driven by succinate at 30XCmax [1, 12]: 0.70±0.12
Glutamate/malate driven respiration State 3 ([1]; 50-fold Cmax): 0.55 ± 0.03
Glutamate/malate driven respiration State 4 ([1]; 50-fold Cmax): 1.21 ± 0.12
Succinate-driven respiration State 3 ([1]; 50-fold Cmax): 0.45 ± 0.08
Succinate-driven respiration State 4 ([1]; 50-fold Cmax): 0.77 ± 0.07
State 3 respiration driven by glutamate/malate at 50XCmax [1, 13]: 0.55±0.03
State 3 respiration driven by succinate at 50XCmax [1, 13]: 0.45±0.08
State 4 respiration driven by glutamate/malate at 50XCmax [1, 13]: 1.21±0.12
State 4 respiration driven by succinate at 50XCmax [1, 13]: 0.77±0.07
inhibition of mitochondrial oxygen consumption ([1]; 100-fold Cmax): ~100%
Glutamate/malate driven respiration State 3 ([1]; 100-fold Cmax): 0.08 ± 0.02
Glutamate/malate driven respiration State 4 ([1]; 100-fold Cmax): 0.50 ± 0.06
Succinate-driven respiration State 3 ([1]; 100-fold Cmax): 0.03 ± 0.02
Succinate-driven respiration State 4 ([1]; 100-fold Cmax): 0.17 ± 0.10
State 3 respiration driven by glutamate/malate at 100XCmax [1, 14]: 0.08±0.02
State 3 respiration driven by succinate at 100XCmax [1, 14]: 0.03±0.02
State 4 respiration driven by glutamate/malate at 100XCmax [1, 14]: 0.50±0.06
State 4 respiration driven by succinate at 100XCmax [1, 14]: 0.17±0.10
lowest concentration significantly affecting mitochondrial oxygen consumption ([1]; tested at 1 to 100-fold Cmax): 30 fold Cmax
RCC I at 10XCmax (RCC I; [10]): 0
RCC activity I (RCC I; 50-fold Cmax, DMSO-treated = 100): 94.04 ± 3.32 % of control
RCC activity I (RCC I; 100-fold Cmax, DMSO-treated = 100): 63.74 ± 13.12 % of control
RCC I at 100XCmax (RCC I; 100XCmax, DMSO-treated = 100): 63.74±13.12
RCC II at 1.0XCmax (RCC II; 1.0XCmax): 0
RCC II at 2.5XCmax (RCC II; 2.5XCmax): 0
RCC II at 5XCmax (RCC II; 5XCmax): 0
RCC II at 10XCmax (RCC II; 10XCmax): 0
RCC II at 20XCmax (RCC II; 20XCmax): 0
RCC II at 30XCmax (RCC II; 30XCmax): 0
RCC II at 50XCmax (RCC II; 50XCmax): 0
RCC II at 100XCmax (RCC II; 100XCmax): 69.91±10.00
RCC activity IV (RCC IV; 50-fold Cmax): 82.33 ± 3.68 % of control
RCC IV at 50XCmax (RCC IV; 50XCmax, DMSO treated samples set as 1, in %): 82.33±3.68
RCC activity IV (RCC IV; 100-fold Cmax): 71.46 ± 7.39 % of control
RCC IV at 100XCmax (RCC IV; 100XCmax): 71.46±7.39
RCC V at 5XCmax (RCC V; [9]): 0
RCC activity V (RCC V; 50-fold Cmax): 71.23 ± 9.65 % of control
RCC V at 50XCmax (RCC V; [13]): 71.23±9.65
RCC activity V (RCC V; 100-fold Cmax): 34.25 ± 2.09 % of control
RCC V at 100XCmax (RCC V; [14]): 34.25±2.09
lowest concentration decreasing MMP [2]: 100 fold Cmax
MMP measured by Rhodamine 123 at 1XCmax [2, 15]: 0
MMP measured by Rhodamine 123 at 2.5XCmax [2, 16]: 0
MMP measured by Rhodamine 123 at 5XCmax [2, 17]: 0
MMP measured by Rhodamine 123 at 10XCmax [2, 18]: 0
MMP measured by Rhodamine 123 at 20XCmax [2, 19]: 0
MMP measured by Rhodamine 123 at 30XCmax [2, 20]: 0
MMP measured by Rhodamine 123 at 50XCmax [2, 21]: 0
MMP measured by Rhodamine 123 at 100XCmax [2, 22]: 4568±757*
effect on MMP ([2]; up to 100-fold Cmax or highest testable concentration): decrease in MMP
lowest concentration causing mitochondrial swelling [3]: 100 fold Cmax
Swelling 1XCmax [3, 15]: 0
Swelling 2.5XCmax [3, 16]: 0
Swelling 5XCmax [3, 17]: 0
Swelling 10XCmax [3, 18]: 0
Swelling 20XCmax [3, 19]: 0
Swelling 30XCmax [3, 20]: 0
Swelling 50XCmax [3, 21]: 0
Swelling 100XCmax [3, 22]: 0.54±0.06
effect on mitochondrial swelling ([3]; up to 100-fold Cmax or highest testable concentration, 25 µM calcium chloride): significant mitochondrial swelling
Cytochrome c release 1XCmax ([4]; 1XCmax, positive control alamethicin treated samples): 0
Cytochrome c release 2.5XCmax ([4]; 2.5XCmax, positive control alamethicin treated samples): 0
Cytochrome c release 5XCmax ([4]; 5XCmax, positive control alamethicin treated samples): 0
Cytochrome c release 10XCmax ([4]; 10XCmax, positive control alamethicin treated samples): 0
Cytochrome c release 20XCmax ([4]; 20XCmax, positive control alamethicin treated samples): 0
Cytochrome c release 30XCmax ([4]; 30XCmax, positive control alamethicin treated samples): 0
Cytochrome c release 50XCmax ([4]; 50XCmax, positive control alamethicin treated samples): 11.93±0.58 percentage of the positive control group
total cytochrome c leaked after treatment ([4]; 100-fold Cmax, alamethicin = 100): 33%
Cytochrome c release 100XCmax ([4]; 100XCmax, positive control alamethicin treated samples): 32.92±4.32 percentage of the positive control group
lowest concentration causing cytochrome c release ([4]; rat, 30 min, pH 7.4): 50 fold Cmax
Cmax ([5]; human therapeutic Cmax at FDA recommended dosages, ref product labeling and drug approval packages at the official FDA website): 1.81 µM
Cmax (ng or µg/ml) ([5]; human therapeutic maximal blood concentration, ref product labeling): 1.01 µg/mL
Cmax ([5]; read-out: Cmax at µM, human therapeutic maximal blood concentration, ref product labeling): 1.81 µM
DILI potential (based on labeling) ([6]; 1 DILI positive, 0 negative according to labeling, ref product labeling): 1
Labeling for DILI ([6]; BBW: black box warning, W&P: Warnings and Precautions, ref product labeling): W&P: ALT↑
labeling for DILI ([6]; W&P warnings and precautions, BBW black box warnings, ref FDA product labeling): W&P: ALT↑/monitoring
DILI potential (based on labeling) ([6]; ref FDA product labeling): 1
